Reference: patent US20240174690A1, “ANNULATED 2-AMINO-3-CYANO THIOPHENES AND DERIVATIVES FOR THE TREATMENT OF CANCER” (BOEHRINGER INGELHEIM INTERNATIONAL GMBH, priority 2021, published 2024)

Key:
A375 cells = assay: A375 CTG proliferation assay (120 h) (melanoma, wt, B-Raf mutant, negative control); assay type: cell-based; details: Homo sapiens, A-375, CTG 120 h
Method: A375 CTG Proliferation Assay (120 h) (Melanoma, Wt, B-Raf Mutant, Negative Control)
A375 cells (ATCC CRL-1619) are dispensed into 384-well plates, flat and clear bottom (Greiner, PNr. 781091) at a density of 300 cells per well in 60 μL DMEM (Sigma 06429)+10% Fetal Calf Serum (HyClone, PNr.: SH30084.03) and incubated at 37° C. in a CO2 incubator overnight. The next day, compounds (10 mM stock in DMSO) are added at logarithmic dose series using the HP Digital Dispenser D300 (Tecan), including DMSO controls. Plates are incubated for 120 h, and cell viability is measured using CellTiter-Glo luminescent cell viability reagent (Promega product code G7570). Viability (stated as percent of control) is defined as relative luminescence units RLU of each well divided by the RLU of cells in DMSO controls. IC50 values are determined from viability measurements by non-linear regression using a four-parameter model.

KRAS (G12V)::SOS1 = KRAS (G12V)::SOS1 (Homo sapiens (Human), UniProt P01116, C118S/G12V); assay: KRAS::SOS1 AlphaScreen binding assay, KRAS G12V
Text: (§1) This assay can be used to examine the potency with which compounds according to the invention binding to (mutated) KRAS inhibit the protein-protein interaction between SOS1 and (mutated) KRAS e.g., KRAS WT, KRAS G12C, KRAS G12D, KRAS G12V, KRAS G13D. […] Low IC50 values in this assay setting are indicative of strong inhibition of protein-protein interaction between SOS1 and KRAS:
(§2) These assays measure the inhibitory effect of compounds on KRAS mutant protein-protein interactions using the Alpha Screen technology by Perkin Elmer.
(§3) The following (mutant) enzyme forms of KRAS and interacting proteins are used in these assays at the given concentrations: • KRAS (G12D) 1-169, N-terminal 6His-tag, C-terminal avi-tag (Xtal BioStructures, Inc.); final assay concentration 10 nM and SOS1 564-1049, N-terminal 229 GST-tag, TEV cleavage site (Viva Biotech Ltd); final assay concentration 5 nM; • KRAS (G12C) 1-169, N-terminal 6His-tag for purification, cleaved off, C-terminal avi-tag, biotinylated, mutations: C51S, C80L, C118S (in house); final assay concentration 7.5 nM and SOS1 564-1049, N-terminal 229 GST-tag, TEV cleavage site (Viva Biotech Ltd); final assay concentration 5 nM; • KRAS (G12V) 1-169, N-terminal 6His-tag for purification, cleaved off, C-terminal avi-tag, biotinylated, TEV cleavage site, mutation: C118S, GDP loaded (in house); final assay concentration 10 nM and SOS1 564-1049, N-terminal 229 GST-tag, TEV cleavage site (Viva Biotech Ltd); final assay concentration 10 nM; • KRAS (G13D) 1-169, N-terminal 6His-tag for purification, cleaved off, C-terminal avi-tag, biotinylated, TEV cleavage site, mutation: C118S, GDP loaded (in house); final assay concentration 10 nM and SOS1 564-1049, N-terminal 229 GST-tag, TEV cleavage site (Viva Biotech Ltd); final assay concentration 10 nM; • KRAS (WT) 1-169, N-terminal 6His-tag for purification, cleaved off, C-terminal avi-tag, biotinylated, TEV cleavage site, mutation: C118S, GDP loaded (in house); final assay concentration 10 nM and SOS1 564-1049, N-terminal 229 GST-tag, TEV cleavage site (Viva Biotech Ltd); final assay concentration 10 nM.
(§4) Test compounds dissolved in DMSO are dispensed onto assay plates (Proxiplate 384 PLUS, white, PerkinElmer; 6008289) using an Access Labcyte Workstation with the Labcyte Echo 55×. For the chosen highest assay concentration of 100 μM, 150 nL of compound solution are transferred from a 10 mM DMSO compound stock solution. A series of eleven fivefold dilutions per compound are transferred to the assay plate, compound dilutions are tested in duplicates. DMSO are added as backfill to a total volume of 150 nL.
(§5) The assays run on a fully automated robotic system in a darkened room below 100 Lux. To 150 nl of compound dilution 10 μl of a mix including KRAS mutant protein, SOS1 (final assay concentrations see above) and GDP nucleotide (Sigma G7127; final assay concentration 10 μM) in assay buffer (1×PBS, 0.1% BSA, 0.05% Tween 20) are added into columns 1-24.
(§6) After 30 minutes incubation time 5 μl of Alpha Screen bead mix in assay buffer are added into columns 1-23. Bead mix consists of AlphaLISA Glutathione Acceptor Beads (PerkinElmer, Cat No AL109) and AlphaScreen Streptavidin Donor Beads (PerkinElmer Cat No 6760002) in assay buffer at a final assay concentration of 10 μg/ml each.
(§7) Plates are kept at room temperature in a darkened incubator. After an additional 60 minutes incubation time the signal is measured in a PerkinElmer Envision HTS Multilabel Reader using the AlphaScreen specs from PerkinElmer.
(§8) Each plate contains up to 16 wells of a negative control depending on the dilution procedure (platewise or serial) (DMSO instead of test compound; with KRAS mutant::SOS1 GDP mix and bead mix; column 23) and 16 wells of a positive control (DMSO instead of test compound; with KRAS mutant::SOS1 GDP mix w/o bead mix; column 24).
(§9) As internal control known inhibitors of KRAS mutant::SOS1 interaction can be measured on each compound plate. […]

KRAS (G13D)::SOS1 = KRAS (G13D)::SOS1 (Homo sapiens (Human), UniProt P01116, C118S/G13D); assay: KRAS::SOS1 AlphaScreen binding assay, KRAS G13D
Text: as §1, §2, §3, §4, §5, §6, §7, §8, §9

Chain of KRAS (G12V)::SOS1 (P01116 other isoform, or with tags, fused parts or gaps G12V/C118S): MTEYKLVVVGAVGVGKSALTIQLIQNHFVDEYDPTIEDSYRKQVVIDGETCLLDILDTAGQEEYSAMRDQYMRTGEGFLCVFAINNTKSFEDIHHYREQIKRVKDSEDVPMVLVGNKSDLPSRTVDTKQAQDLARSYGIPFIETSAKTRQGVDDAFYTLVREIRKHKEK
Chain of KRAS (G13D)::SOS1 (P01116 other isoform, or with tags, fused parts or gaps G13D/C118S): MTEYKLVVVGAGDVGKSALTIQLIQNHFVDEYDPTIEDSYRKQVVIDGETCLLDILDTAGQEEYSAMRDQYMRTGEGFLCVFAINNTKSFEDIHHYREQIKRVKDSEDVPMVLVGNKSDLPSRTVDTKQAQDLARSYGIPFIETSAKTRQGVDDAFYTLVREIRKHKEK

| Compound | IC50 (A375 cells) [nM] | IC50 (KRAS (G12V)::SOS1) [nM] | IC50 (KRAS (G13D)::SOS1) [nM] |
| --- | --- | --- | --- |
| C[C@H](Oc1cc(N2CCNC2=O)nc(-c2noc3c2CCC[C@@]32CCCc3sc(N)c(C#N)c32)n1)[C@@H]1CCCN1C [II-64] | 2580 |  |  |
| CNC(=O)c1cn(-c2cc(O[C@@H](C)[C@@H]3CCCN3C)nc(-c3noc4c3CCC[C@@]43CCCc4sc(N)c(C#N)c43)n2)nn1 [II-122] | 761 |  |  |
| C[C@H](Oc1cc(N2CCc3cccnc32)nc(-c2noc3c2CCC[C@@]32CCCc3sc(N)c(C#N)c32)n1)[C@@H]1CCCN1C [II-90] |  | 8 |  |
| C[C@H](Oc1cc(N2CCN(C)CC2)nc(-c2noc3c2CCC[C@@]32CCCc3sc(N)c(C#N)c32)n1)[C@@H]1CCCN1C [II-55] |  | 11 | 47 |
| C[C@H](Oc1cc(N2CCCC3(COC3)C2)nc(-c2noc3c2CCC[C@@]32CCCc3sc(N)c(C#N)c32)n1)[C@@H]1CCCN1C [II-72] |  |  | 9 |
| C[C@H](Oc1cc(-n2ccncc2=O)nc(-c2noc3c2CCC[C@@]32CCCc3sc(N)c(C#N)c32)n1)[C@@H]1CCCN1C [II-116] |  |  | 17 |
| C[C@H](Oc1cc(N2CCN(C)C2=O)nc(-c2noc3c2CCC[C@@]32CCCc3sc(N)c(C#N)c32)n1)[C@@H]1CCCN1C [II-75] | 2540 |  |  |
| CO[C@@H]1C[C@@H]([C@H](C)Oc2cc(-c3ccn(C)n3)nc(-c3noc4c3CCC[C@@]43CCCc4sc(N)c(C#N)c43)n2)N(C)C1 [II-91] | 1140 |  |  |
| C[C@H](Oc1cc(N2CCNC3(CC3)C2)nc(-c2noc3c2CCC[C@@]32CCCc3sc(N)c(C#N)c32)n1)[C@@H]1CCCN1C [II-54] |  | 9 | 33 |
| C[C@H](Oc1cc(-n2cncc3ccnc2-3)nc(-c2noc3c2CCC[C@@]32CCCc3sc(N)c(C#N)c32)n1)[C@@H]1CCCN1C [II-105] |  | 2 |  |
| C[C@H](Oc1cc(N2CC[C@H](N(C)C)C2)nc(-c2noc3c2CCC[C@@]32CCCc3sc(N)c(C#N)c32)n1)[C@@H]1CCCN1C [II-49] |  | 54 | 173 |
| C[C@H](Oc1cc(-c2ccn(C)n2)nc(-c2noc3c2CCC[C@@]32CCCc3sc(N)c(C#N)c32)n1)[C@@H]1CCCN1C [II-96] |  | 2 |  |
| C[C@H](Oc1cc(-n2ccnc2)nc(-c2noc3c2CCC[C@@]32CCCc3sc(N)c(C#N)c32)n1)[C@@H]1C[C@@H](F)CN1C [II-120] |  | 5 |  |
| C[C@H](Oc1cc(-c2ccncc2)nc(-c2noc3c2CCC[C@@]32CCCc3sc(N)c(C#N)c32)n1)[C@@H]1CCCN1C [II-78] |  | 3 |  |
| C[C@H](Oc1cc(-n2cncn2)nc(-c2noc3c2CCC[C@@]32CCCc3sc(N)c(C#N)c32)n1)[C@@H]1CCCN1C [II-70] |  |  | 19 |
| C[C@H](Oc1cc([C@@H]2CCOC2)nc(-c2noc3c2CCC[C@@]32CCCc3sc(N)c(C#N)c32)n1)[C@@H]1CCCN1C [II-94] | > 3000 | 2 | 9 |
| C[C@H](Oc1cc(-n2ccc(-c3ccccn3)n2)nc(-c2noc3c2CCC[C@@]32CCCc3sc(N)c(C#N)c32)n1)[C@@H]1CCCN1C [II-119] |  | 2 |  |
| C[C@H](Oc1cc(-c2ccccn2)nc(-c2noc3c2CCC[C@@]32CCCc3sc(N)c(C#N)c32)n1)[C@@H]1CCCN1C [II-85] |  | 2 |  |
| C[C@H](Oc1cc(-c2ccc(N)nc2)nc(-c2noc3c2CCC[C@@]32CCCc3sc(N)c(C#N)c32)n1)[C@@H]1CCCN1C [II-101] |  | 2 |  |
| C[C@H](Oc1cc(-n2cc(-c3cccnc3)nn2)nc(-c2noc3c2CCC[C@@]32CCCc3sc(N)c(C#N)c32)n1)[C@@H]1CCCN1C [II-123] | 259 |  |  |
| C[C@H](Oc1cc(C2CCOCC2)nc(-c2noc3c2CCC[C@@]32CCCc3sc(N)c(C#N)c32)n1)[C@@H]1CCCN1C [II-76] |  |  | 41 |
| C[C@H](Oc1cc(-c2cncnc2)nc(-c2noc3c2CCC[C@@]32CCCc3sc(N)c(C#N)c32)n1)[C@@H]1CCCN1C [II-82] |  | 9 |  |
| C[C@H](Oc1cc(N2CCOC3(COC3)C2)nc(-c2noc3c2CCC[C@@]32CCCc3sc(N)c(C#N)c32)n1)[C@@H]1CCCN1C [II-77] | > 3000 |  | 8 |
| C[C@H](Oc1cc(-n2ccc(Br)n2)nc(-c2noc3c2CCC[C@@]32CCCc3sc(N)c(C#N)c32)n1)[C@@H]1CCCN1C [II-110] |  | 3 |  |
